Measurements: ChEMBL document CHEMBL3885881, “DrugMatrix”

Species on record: Rattus norvegicus
Experiment: DrugMatrix - Regimen: Daily Repeat
Assay type: toxicity, organism-based, Sprague-Dawley
Set-up: regimen Daily Repeat, gender Male, age 6-8 weeks
Settings: in vivo, po, route oral GAVAGE, vehicle .5 % CMC; for ABSOLUTE BASOPHIL / ABSOLUTE EOSINOPHIL / ABSOLUTE LYMPHOCYTE / ABSOLUTE MONOCYTE / ABSOLUTE SEGMENTED NEUTROPHIL / BASOPHIL / EOSINOPHIL / ERYTHROCYTE COUNT / HEMATOCRIT / HEMOGLOBIN / LEUKOCYTE COUNT / LYMPHOCYTE / MEAN CORPUSCULAR HEMOGLOBIN / MEAN CORPUSCULAR HEMOGLOBIN CONCENTRATION / MEAN CORPUSCULAR VOLUME / MONOCYTE / NEUTROPHIL / NUCLEATED RED BLOOD CELLS / PLATELET COUNT: tissue Blood; for ALANINE AMINOTRANSFERASE / ALBUMIN / ALKALINE PHOSPHATASE / ASPARTATE AMINOTRANSFERASE / BLOOD UREA NITROGEN / CARBON DIOXIDE / CHLORIDE / CHOLESTEROL / CREATINE PHOSPHOKINASE / CREATININE / GLUCOSE / LACTATE DEHYDROGENASE / LIPASE / PHOSPHORUS / POTASSIUM / SODIUM / TOTAL BILIRUBIN / TOTAL PROTEIN / URIC ACID: tissue Plasma
[1] = 0 mg/kg, 72 h, dose level Control, time 3 day
[2] = 0 mg/kg, 120 h, dose level Control, time 5 day
[3] = 30 mg/kg, 72 h, dose level Low, time 3 day
[4] = 30 mg/kg, 120 h, dose level Low, time 5 day

For `COc1ccc(/C=C/C(=O)Nc2ccccc2C(=O)O)cc1OC`, the “ABSOLUTE BASOPHIL” value [1] was 0 CELLS/uL, the “ABSOLUTE EOSINOPHIL” value [1] was 222.83 CELLS/uL and the “ABSOLUTE LYMPHOCYTE” value [1] was 14453 CELLS/uL. For the same compound, the “ABSOLUTE MONOCYTE” value [1] was 0 CELLS/uL, the “ABSOLUTE SEGMENTED NEUTROPHIL” value [1] was 1490.83 CELLS/uL and the BASOPHIL [1] was 0%. For the same compound, the EOSINOPHIL [1] was 1.33%, the “ERYTHROCYTE COUNT” value [1] was 5.76 x10E6/uL and the HEMATOCRIT [1] was 36.52%. The HEMOGLOBIN [1] was 13.45 G/DL, the “LEUKOCYTE COUNT” value [1] was 16.17 x10E3/uL and the LYMPHOCYTE [1] was 89.33%. For the same compound, the “MEAN CORPUSCULAR HEMOGLOBIN” value [1] was 23.37 pg, the “MEAN CORPUSCULAR HEMOGLOBIN CONCENTRATION” value [1] was 36.85 G/DL and the “MEAN CORPUSCULAR VOLUME” value [1] was 63.47 fL. For the same compound, the MONOCYTE [1] was 0%, the NEUTROPHIL [1] was 9.33% and the “NUCLEATED RED BLOOD CELLS” value [1] was 0 /100WBC. The “PLATELET COUNT” value [1] was 1239.5 x10E3/uL, the “ALANINE AMINOTRANSFERASE” value [1] was 43.83 u/L and the ALBUMIN [1] was 4.27 G/DL. The “ALKALINE PHOSPHATASE” value [1] was 398.83 u/L, the “ASPARTATE AMINOTRANSFERASE” value [1] was 81.17 u/L and the “BLOOD UREA NITROGEN” value [1] was 17.67 mg/dL. For the same compound, the “CARBON DIOXIDE” value [1] was 27.5 mmol/L, the CHLORIDE [1] was 99.17 MEQ/L and the CHOLESTEROL [1] was 74 mg/dL. The “CREATINE PHOSPHOKINASE” value [1] was 331.5 u/L, the CREATININE [1] was 0.2 mg/dL and the GLUCOSE [1] was 171.33 mg/dL. For the same compound, the “LACTATE DEHYDROGENASE” value [1] was 241.67 u/L, the LIPASE [1] was 9.5 u/L and the PHOSPHORUS [1] was 12.25 mg/dL. The POTASSIUM [1] was 6.33 MEQ/L, the SODIUM [1] was 141.28 MEQ/L and the “TOTAL BILIRUBIN” value [1] was 0.15 mg/dL. For the same compound, the “TOTAL PROTEIN” value [1] was 5.98 G/DL, the “URIC ACID” value [1] was 1.63 mg/dL and the “ABSOLUTE BASOPHIL” value [2] was 0 CELLS/uL. The “ABSOLUTE EOSINOPHIL” value [2] was 148.67 CELLS/uL, the “ABSOLUTE LYMPHOCYTE” value [2] was 16020.5 CELLS/uL and the “ABSOLUTE MONOCYTE” value [2] was 29.17 CELLS/uL. The “ABSOLUTE SEGMENTED NEUTROPHIL” value [2] was 1468.33 CELLS/uL, the BASOPHIL [2] was 0% and the EOSINOPHIL [2] was 1%. The “ERYTHROCYTE COUNT” value [2] was 5.78 x10E6/uL, the HEMATOCRIT [2] was 35.77% and the HEMOGLOBIN [2] was 13.4 G/DL. For the same compound, the “LEUKOCYTE COUNT” value [2] was 17.67 x10E3/uL, the LYMPHOCYTE [2] was 90.5% and the “MEAN CORPUSCULAR HEMOGLOBIN” value [2] was 23.22 pg. The “MEAN CORPUSCULAR HEMOGLOBIN CONCENTRATION” value [2] was 37.47 G/DL, the “MEAN CORPUSCULAR VOLUME” value [2] was 61.92 fL and the MONOCYTE [2] was 0.17%. The NEUTROPHIL [2] was 8.33%, the “NUCLEATED RED BLOOD CELLS” value [2] was 0.17 /100WBC and the “PLATELET COUNT” value [2] was 1255.5 x10E3/uL. The “ALANINE AMINOTRANSFERASE” value [2] was 46.5 u/L, the ALBUMIN [2] was 4.38 G/DL and the “ALKALINE PHOSPHATASE” value [2] was 336 u/L. The “ASPARTATE AMINOTRANSFERASE” value [2] was 76.5 u/L, the “BLOOD UREA NITROGEN” value [2] was 20 mg/dL and the “CARBON DIOXIDE” value [2] was 27.5 mmol/L. For the same compound, the CHLORIDE [2] was 101 MEQ/L, the CHOLESTEROL [2] was 71.33 mg/dL and the “CREATINE PHOSPHOKINASE” value [2] was 231.83 u/L. For the same compound, the CREATININE [2] was 0.37 mg/dL, the GLUCOSE [2] was 168.83 mg/dL and the “LACTATE DEHYDROGENASE” value [2] was 174 u/L. The LIPASE [2] was 8.67 u/L, the PHOSPHORUS [2] was 11.48 mg/dL and the POTASSIUM [2] was 6.82 MEQ/L. For the same compound, the SODIUM [2] was 143.8 MEQ/L, the “TOTAL BILIRUBIN” value [2] was 0.2 mg/dL and the “TOTAL PROTEIN” value [2] was 5.98 G/DL. For the same compound, the “URIC ACID” value [2] was 1.83 mg/dL, the “ABSOLUTE BASOPHIL” value [3] was 0 CELLS/uL and the “ABSOLUTE EOSINOPHIL” value [3] was 217.33 CELLS/uL. The “ABSOLUTE LYMPHOCYTE” value [3] was 12060 CELLS/uL, the “ABSOLUTE MONOCYTE” value [3] was 0 CELLS/uL and the “ABSOLUTE SEGMENTED NEUTROPHIL” value [3] was 1122.67 CELLS/uL. The BASOPHIL [3] was 0%, the EOSINOPHIL [3] was 1.67% and the “ERYTHROCYTE COUNT” value [3] was 5.52 x10E6/uL. The HEMATOCRIT [3] was 34.6%, the HEMOGLOBIN [3] was 13.1 G/DL and the “LEUKOCYTE COUNT” value [3] was 13.4 x10E3/uL. For the same compound, the LYMPHOCYTE [3] was 90%, the “MEAN CORPUSCULAR HEMOGLOBIN” value [3] was 23.77 pg and the “MEAN CORPUSCULAR HEMOGLOBIN CONCENTRATION” value [3] was 37.9 G/DL. For the same compound, the “MEAN CORPUSCULAR VOLUME” value [3] was 62.73 fL, the MONOCYTE [3] was 0% and the NEUTROPHIL [3] was 8.33%. The “NUCLEATED RED BLOOD CELLS” value [3] was 0 /100WBC, the “PLATELET COUNT” value [3] was 1155.33 x10E3/uL and the “ALANINE AMINOTRANSFERASE” value [3] was 48.67 u/L. The ALBUMIN [3] was 4.13 G/DL, the “ALKALINE PHOSPHATASE” value [3] was 344.33 u/L and the “ASPARTATE AMINOTRANSFERASE” value [3] was 77 u/L. The “BLOOD UREA NITROGEN” value [3] was 14.67 mg/dL, the “CARBON DIOXIDE” value [3] was 23.67 mmol/L and the CHLORIDE [3] was 103.67 MEQ/L. For the same compound, the CHOLESTEROL [3] was 71 mg/dL, the “CREATINE PHOSPHOKINASE” value [3] was 180 u/L and the CREATININE [3] was 0.19 mg/dL. The GLUCOSE [3] was 159.67 mg/dL, the “LACTATE DEHYDROGENASE” value [3] was 96.67 u/L and the LIPASE [3] was 8 u/L. For the same compound, the PHOSPHORUS [3] was 12.47 mg/dL, the POTASSIUM [3] was 5.88 MEQ/L and the SODIUM [3] was 144.63 MEQ/L. For the same compound, the “TOTAL BILIRUBIN” value [3] was 0.17 mg/dL, the “TOTAL PROTEIN” value [3] was 5.67 G/DL and the “URIC ACID” value [3] was 1.47 mg/dL. For the same compound, the “ABSOLUTE BASOPHIL” value [4] was 0 CELLS/uL, the “ABSOLUTE EOSINOPHIL” value [4] was 278.67 CELLS/uL and the “ABSOLUTE LYMPHOCYTE” value [4] was 14764.67 CELLS/uL. The “ABSOLUTE MONOCYTE” value [4] was 0 CELLS/uL, the “ABSOLUTE SEGMENTED NEUTROPHIL” value [4] was 1590 CELLS/uL and the BASOPHIL [4] was 0%. For the same compound, the EOSINOPHIL [4] was 1.67%, the “ERYTHROCYTE COUNT” value [4] was 5.36 x10E6/uL and the HEMATOCRIT [4] was 34.2%. The HEMOGLOBIN [4] was 13.03 G/DL, the “LEUKOCYTE COUNT” value [4] was 16.63 x10E3/uL and the LYMPHOCYTE [4] was 88.67%. The “MEAN CORPUSCULAR HEMOGLOBIN” value [4] was 24.4 pg, the “MEAN CORPUSCULAR HEMOGLOBIN CONCENTRATION” value [4] was 38.1 G/DL and the “MEAN CORPUSCULAR VOLUME” value [4] was 63.97 fL. The MONOCYTE [4] was 0%, the NEUTROPHIL [4] was 9.67% and the “NUCLEATED RED BLOOD CELLS” value [4] was 0.33 /100WBC. The “PLATELET COUNT” value [4] was 1260.33 x10E3/uL, the “ALANINE AMINOTRANSFERASE” value [4] was 59 u/L and the ALBUMIN [4] was 4.5 G/DL. The “ALKALINE PHOSPHATASE” value [4] was 404 u/L, the “ASPARTATE AMINOTRANSFERASE” value [4] was 84.33 u/L and the “BLOOD UREA NITROGEN” value [4] was 18.33 mg/dL. The “CARBON DIOXIDE” value [4] was 25.33 mmol/L, the CHLORIDE [4] was 103 MEQ/L and the CHOLESTEROL [4] was 75.67 mg/dL. For the same compound, the “CREATINE PHOSPHOKINASE” value [4] was 221 u/L, the CREATININE [4] was 0.18 mg/dL and the GLUCOSE [4] was 161.67 mg/dL. The “LACTATE DEHYDROGENASE” value [4] was 269 u/L, the LIPASE [4] was 9 u/L and the PHOSPHORUS [4] was 12.57 mg/dL. The POTASSIUM [4] was 6.47 MEQ/L, the SODIUM [4] was 145.07 MEQ/L and the “TOTAL BILIRUBIN” value [4] was 0.1 mg/dL. The “TOTAL PROTEIN” value [4] was 6.03 G/DL and the “URIC ACID” value [4] was 1.6 mg/dL.
